Data reported in EPA's ToxValDB 9.5 (doi:10.2903/j.efsa.2012.2917).
Where “and” joins values, the source holds several entries; their conditions need not be identical. Equal values may be shown once.

Legend:
Anas platyrhynchos = conditions: short-term; oral; feed; mortality

Which LC50 (Colinus virginianus; acute, oral, diet, mortality) does the source give for Cn1cc(C(=O)Nc2ccc(F)cc2-c2ccc(Cl)c(Cl)c2)c(C(F)F)n1 [Bixafen] here?
The LC50 was over 1160 mg/kg-day.

And the LD50 (Colinus virginianus; acute, oral, mortality)?
Its LD50 is over 2000 mg/kg-day.

What about the NOEC (Colinus virginianus; reproduction developmental) of the same molecule?
Its NOEC is 24.5 mg/kg-day and 30 mg/kg-day.

And the LC50 (Anas platyrhynchos)?
Its LC50 is over 1550 mg/kg-day.

What about the LD50 (Rattus norvegicus; acute, oral, mortality) of the same molecule?
Its LD50 is over 5000 mg/kg-day.

What about the NOEL (Rattus norvegicus; chronic, body weight) of the same molecule?
The NOEL was 33.3 mg/kg-day.

And the NOAEL (Rattus norvegicus; chronic, duration: 2 years, organ weight)?
Its NOAEL is 2 mg/kg-day.

And the NOAEL (Rattus norvegicus; developmental, development)?
The NOAEL was 20 mg/kg-day.

What about the NOAEL (Rattus norvegicus; subchronic, duration: 90 days, oral, organ weight) of the same molecule?
The NOAEL was 12.9 mg/kg-day.
